Measured values reported in PubChem BioAssay (NCI).
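Protocol summary: plate cells (96-well), add compound at 5 concentrations, incubate 48 h, interpolate endpoints linearly. TGI marks complete inhibition of growth.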

Key:
Test in all cases: NCI-60 cell line screen, 48 h
786-0 renal = system: 786-0 renal
A498 renal = system: A498 renal
A549 NSCLC = system: A549 NSCLC
ACHN renal = system: ACHN renal
BT-549 breast = system: BT-549 breast
CAKI-1 renal = system: CAKI-1 renal
CCRF-CEM leukemia = system: CCRF-CEM leukemia
COLO 205 colon = system: COLO 205 colon
DU-145 prostate = system: DU-145 prostate
EKVX NSCLC = system: EKVX NSCLC
HCC-2998 colon = system: HCC-2998 colon
HCT-116 colon = system: HCT-116 colon
HCT-15 colon = system: HCT-15 colon
HL-60(TB) leukemia = system: HL-60(TB) leukemia
HOP-62 NSCLC = system: HOP-62 NSCLC
HOP-92 NSCLC = system: HOP-92 NSCLC
HS 578T breast = system: HS 578T breast
HT29 colon = system: HT29 colon
IGROV1 ovarian = system: IGROV1 ovarian
K-562 leukemia = system: K-562 leukemia
KM12 colon = system: KM12 colon
LOX IMVI melanoma = system: LOX IMVI melanoma
M14 melanoma = system: M14 melanoma
MALME-3M melanoma = system: MALME-3M melanoma
MCF7 breast = system: MCF7 breast
MDA-MB-231 breast = system: MDA-MB-231 breast
MDA-MB-435 = system: MDA-MB-435
MDA-N = system: MDA-N
MOLT-4 leukemia = system: MOLT-4 leukemia
NCI-H226 lung = system: NCI-H226 lung
NCI-H23 lung = system: NCI-H23 lung
NCI-H460 lung = system: NCI-H460 lung
NCI-H522 lung = system: NCI-H522 lung
NCI/ADR-RES ovarian = system: NCI/ADR-RES ovarian
OVCAR-4 ovarian = system: OVCAR-4 ovarian
OVCAR-5 ovarian = system: OVCAR-5 ovarian
OVCAR-8 ovarian = system: OVCAR-8 ovarian
PC-3 prostate = system: PC-3 prostate
RPMI-8226 leukemia = system: RPMI-8226 leukemia
RXF 393 renal = system: RXF 393 renal
SF-295 CNS = system: SF-295 CNS
SF-539 CNS = system: SF-539 CNS
SK-MEL-2 melanoma = system: SK-MEL-2 melanoma
SK-MEL-28 melanoma = system: SK-MEL-28 melanoma
SK-MEL-5 melanoma = system: SK-MEL-5 melanoma
SK-OV-3 ovarian = system: SK-OV-3 ovarian
SN12C renal = system: SN12C renal
SNB-19 CNS = system: SNB-19 CNS
SNB-75 CNS = system: SNB-75 CNS
SR leukemia = system: SR leukemia
SW-620 colon = system: SW-620 colon
T-47D breast = system: T-47D breast
TK-10 renal = system: TK-10 renal
U251 CNS = system: U251 CNS
UACC-257 melanoma = system: UACC-257 melanoma
UACC-62 melanoma = system: UACC-62 melanoma
OVCAR-3 ovarian = system: OVCAR-3 ovarian
SF-268 CNS = system: SF-268 CNS
UO-31 renal = system: UO-31 renal

Measured: TGI

COCn1c2ccc(OC(C)=O)cc2c2c(=O)oc(N(C)C)nc21
not listed: OVCAR-3 ovarian | SF-268 CNS | UO-31 renal
> 100 µM: all other assays above

CC(=O)OC1C(O)COC(O[C@H]2CC[C@]34C[C@]35CC[C@]3(C)C([C@@]6(C)CC[C@@H](C(C)(C)O)O6)[C@@H](O)C[C@@]3(C)C5C[C@H](OC3OCC(O)C(O)C3O)[C@H]4C2(C)C)C1OC1OCC(O)C(O)C1O (some centres undefined)
not listed: CCRF-CEM leukemia
> 100 µM: all other assays above
